Consider 28 compounds from ChEMBL document CHEMBL1125158, “A model for compounds active against human rhinovirus-14 based on X-ray crystallography data” (1990).

Assay [1] concerns rhinovirus B14. Nature of the assay: In vitro minimum inhibitory concentration for the inhibition of human rhinovirus-14 replication. The assay is classed as functional.
Assay [2] relates to rhinovirus B14. Nature of the assay: In vitro minimum inhibitory concentration for the inhibition of human rhinovirus-14 (HRV-14) replication by binding to viral capsid; NA= inactive at the 10 umol. The assay is classed as functional, organism-based.
In assay [3] the test system is rhinovirus B14. Nature of the assay: In vitro inhibitory activity against human rhinovirus-14 was determined. Particulars: Rhinovirus B. The format is functional.

Values after ≈ are worked out from the molar mass of the structure shown. Active and inactive are the calls of the source. No cut-off for these calls is given here.

As to `Cc1cc(CCCCCOc2ccc(C3=NCCO3)cc2Cl)on1`, in the assay on rhinovirus B14 [1] (Rhinovirus B), the MIC is 2.41 µM (≈ 0.841 µg/mL).

Compound `Cc1cc(CCCCCCCOc2ccc(C3=NCCO3)cc2Cl)on1` showed an MIC against rhinovirus B14 [1] (Rhinovirus B) of 1.06 µM (≈ 0.399 µg/mL).

Regarding `Cc1cc(CCCCCOc2ccc(C3=NCCO3)cc2N(C)C)on1`, the MIC result with rhinovirus B14 [2] was “inactive”.

`Cc1cc(CCCCCCCOc2ccc(C3=NC(C)(C)CO3)cc2)on1` had an MIC against rhinovirus B14 [1] (Rhinovirus B) of 0.16 µM (≈ 0.0593 µg/mL).

For `Cc1cc(CCCCCOc2c(Cl)cc(-c3cnco3)cc2Cl)on1`, the MIC entry in the assay with rhinovirus B14 [2] was “inactive”.

With `Cc1cc(CCCCCOc2c(C)cc(-c3ccoc3)cc2C)on1`, the MIC entry in the assay on rhinovirus B14 [2] was “inactive”.

Turning to `Cc1cc(CCCCCOc2ccc(C3=NCCO3)cc2)on1`, the MIC against rhinovirus B14 [3] turned out to be 1.27 µM (≈ 0.399 µg/mL); in the assay with rhinovirus B14 [1] (Rhinovirus B), 0.51 µM (≈ 0.16 µg/mL).

`CCc1cc(C2=NCCO2)cc(C)c1OCCCCCc1cc(C)no1`: the MIC entry with rhinovirus B14 [2] was “inactive”.

With `Cc1cc(CCCCCCCOc2ccc(C3=NCCO3)cc2)on1` [DISOXARIL], the MIC against rhinovirus B14 [1] (Rhinovirus B) came out at 0.41 µM (≈ 0.14 µg/mL).

`Cc1cc(CCCCCCOc2ccc(C3=NCCO3)cc2Cl)on1` showed an MIC in the assay on rhinovirus B14 [1] (Rhinovirus B) of 3.86 µM (≈ 1.4 µg/mL).

With `Cc1cc(CCCCCCCOc2ccc(C3=NC(C)CO3)cc2)on1` (centres undefined), the MIC against rhinovirus B14 [1] (Rhinovirus B) is 0.05 µM (≈ 0.0178 µg/mL).

As for `Cc1cc(CCCCOc2ccc(C3=NCCO3)cc2)on1`, in the assay with rhinovirus B14 [1], the MIC entry was “inactive”.

Consider `Cc1cc(CCCCOc2ccc(C3=NCCO3)cc2Cl)on1`, for which, in the assay on rhinovirus B14 [1] (Rhinovirus B), the MIC was 9.2 µM (≈ 3.08 µg/mL).

For the compound `CCCc1cc(CCCCCOc2ccc(C3=NCCO3)cc2)on1`, in the assay with rhinovirus B14 [1] (Rhinovirus B), the MIC was 0.16 µM (≈ 0.0548 µg/mL).

In turn, `Cc1cc(CCCCCCCOc2ccc(C3=NC(C)CO3)cc2Cl)on1` (centres undefined) registered an MIC in the assay with rhinovirus B14 [1] (Rhinovirus B) of 2.4 µM (≈ 0.938 µg/mL).

In turn, `Cc1cc(CCCCCCCOc2ccc(C3=NC(CO)CO3)cc2)on1` (centres undefined) showed an MIC with rhinovirus B14 [1] (Rhinovirus B) of 0.16 µM (≈ 0.0596 µg/mL).

In turn, `Cc1cc(CCCCCCCCOc2ccc(C3=NCCO3)cc2Cl)on1` had an MIC against rhinovirus B14 [1] (Rhinovirus B) of 14.3 µM (≈ 5.6 µg/mL).

Consider `CC[C@H]1COC(c2ccc(OCCCCCCCc3cc(C)no3)cc2)=N1`, for which the MIC with rhinovirus B14 [1] (Rhinovirus B) worked out at 0.023 µM (≈ 0.00852 µg/mL).

Compound `CCc1cc(CCCCCOc2ccc(C3=NCCO3)cc2)on1` had an MIC in the assay on rhinovirus B14 [1] (Rhinovirus B) of 0.43 µM (≈ 0.141 µg/mL).

Take `Cc1cc(CCCCCOc2c(Cl)cc(C3=NCCO3)cc2C(C)(C)C)on1`: in the assay on rhinovirus B14 [2], the MIC entry is “inactive”.

In the assay on rhinovirus B14 [1] (Rhinovirus B), `Cc1cc(CCCCCCCCOc2ccc(C3=NCCO3)cc2)on1` showed an MIC of 3.92 µM (≈ 1.4 µg/mL).

With `Cc1cc(CCCCCOc2c(Cl)cc(-c3ccoc3)cc2Cl)on1`, the MIC result in the assay with rhinovirus B14 [2] is “inactive”.

Take `Cc1cc(CCCCCOc2c(C)cc(-c3ccco3)cc2C)on1`: the MIC entry in the assay on rhinovirus B14 [2] is “inactive”.

Compound `OCCOCOCc1cc(CCCCCCCOc2c(Cl)cc(C3=NCCO3)cc2Cl)on1` displayed an MIC with rhinovirus B14 [1] (Rhinovirus B) of 0.06 µM (≈ 0.0301 µg/mL).

For `CCCCc1cc(CCCCCOc2ccc(C3=NCCO3)cc2)on1`, in the assay on rhinovirus B14 [1] (Rhinovirus B), the MIC was determined as 0.56 µM (≈ 0.2 µg/mL).

In the case of `Cc1cc(CCCCCCOc2ccc(C3=NCCO3)cc2)on1`, the MIC against rhinovirus B14 [1] (Rhinovirus B) stood at 2.9 µM (≈ 0.952 µg/mL).

For `Cc1cc(CCCCCOc2ccc(C3=NC(C)CO3)cc2)on1` (centres undefined), in the assay on rhinovirus B14 [1] (Rhinovirus B), the MIC is 0.7 µM (≈ 0.23 µg/mL).

On to `Cc1cc(CCCCCOc2ccc(-c3nc(C)c(C)s3)cc2)on1`, for which the MIC in the assay on rhinovirus B14 [1] (Rhinovirus B) came out at 0.14 µM (≈ 0.0499 µg/mL).
